Results from patent US8232406B2, “c-MET protein kinase inhibitors” (Vertex Pharmaceuticals Incorporated, priority 2006, dated 2012).

Molecular target: c-MET (Homo sapiens, UniProt P08581)
Experiment: Ki determination for the inhibition of c-MET (standard radiometric 33P-ATP kinase assay, polyE4Y substrate)
Type: biochemical
Settings: 1.0 nM c-Met, 35 μM ATP, 0.5 mg/mL polyE4Y, 20 min; competitive tight-binding fit
How it was run: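 Radiometric assay of 33P transfer from 33P-ATP (35 μM) to polyE4Y (0.5 mg/mL) by 1.0 nM c-Met in 100 mM HEPES pH 7.5, 10 mM MgCl2, 25 mM NaCl, 0.01% BSA, 1 mM DTT. TCA-quenched after 20 min, filter-captured, scintillation-counted; Ki fitted to a competitive tight-binding model.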

Sequence of c-MET (P08581 25-1390): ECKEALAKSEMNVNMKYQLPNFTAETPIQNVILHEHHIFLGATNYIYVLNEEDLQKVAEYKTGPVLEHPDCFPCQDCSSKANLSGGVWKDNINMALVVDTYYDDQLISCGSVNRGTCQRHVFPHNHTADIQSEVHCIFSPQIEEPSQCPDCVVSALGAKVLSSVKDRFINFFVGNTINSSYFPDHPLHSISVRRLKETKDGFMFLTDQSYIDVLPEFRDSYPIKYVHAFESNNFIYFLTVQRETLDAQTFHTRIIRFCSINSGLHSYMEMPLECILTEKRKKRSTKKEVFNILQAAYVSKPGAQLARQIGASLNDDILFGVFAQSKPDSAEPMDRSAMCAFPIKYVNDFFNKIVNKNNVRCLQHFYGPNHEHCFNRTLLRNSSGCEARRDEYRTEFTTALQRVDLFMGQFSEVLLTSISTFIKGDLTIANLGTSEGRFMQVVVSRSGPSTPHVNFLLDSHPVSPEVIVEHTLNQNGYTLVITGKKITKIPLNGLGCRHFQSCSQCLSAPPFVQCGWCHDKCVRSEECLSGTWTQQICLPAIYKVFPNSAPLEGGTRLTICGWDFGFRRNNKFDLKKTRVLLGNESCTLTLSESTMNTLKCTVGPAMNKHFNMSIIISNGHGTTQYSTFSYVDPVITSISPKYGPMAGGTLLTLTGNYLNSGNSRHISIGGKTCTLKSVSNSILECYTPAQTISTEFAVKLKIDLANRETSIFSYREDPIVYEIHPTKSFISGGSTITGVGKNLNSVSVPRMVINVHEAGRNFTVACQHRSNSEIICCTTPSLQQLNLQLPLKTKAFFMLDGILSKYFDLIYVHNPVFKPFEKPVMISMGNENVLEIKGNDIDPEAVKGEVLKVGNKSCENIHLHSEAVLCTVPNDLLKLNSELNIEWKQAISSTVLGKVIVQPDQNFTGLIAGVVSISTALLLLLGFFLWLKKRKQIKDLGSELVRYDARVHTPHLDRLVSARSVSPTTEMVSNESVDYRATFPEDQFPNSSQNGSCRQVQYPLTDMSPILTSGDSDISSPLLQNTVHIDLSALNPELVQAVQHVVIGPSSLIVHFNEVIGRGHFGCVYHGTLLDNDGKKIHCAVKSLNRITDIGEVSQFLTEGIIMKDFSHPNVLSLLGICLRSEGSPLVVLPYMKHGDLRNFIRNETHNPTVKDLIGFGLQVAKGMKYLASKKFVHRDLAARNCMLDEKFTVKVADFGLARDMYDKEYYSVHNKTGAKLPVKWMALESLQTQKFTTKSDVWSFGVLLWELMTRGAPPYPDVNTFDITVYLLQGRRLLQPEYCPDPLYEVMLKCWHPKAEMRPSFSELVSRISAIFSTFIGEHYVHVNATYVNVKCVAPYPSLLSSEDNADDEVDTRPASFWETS

Ki	SMILES
≤ 100 nM	Nc1ncc(-c2cnn([C@@H]3CCNC3)c2)cc1-c1nnnn1-c1cccc(Cl)c1F [I-A-538]
100 to 1000 nM	Nc1ncc(-c2nccs2)cc1-c1nnnn1-c1cccc(F)c1F [I-A-539]
≤ 100 nM	Nc1ncc(-c2cncs2)cc1-c1nnnn1-c1cccc(F)c1F [I-A-540]
100 to 1000 nM	Nc1ncc(-c2cscn2)nc1-c1nnnn1-c1ccccc1F [I-A-541]
≤ 100 nM	Nc1ncc(-c2cc3c(s2)CNCC3)nc1-c1nnnn1-c1cccc(Cl)c1F [I-A-542]
100 to 1000 nM	Cc1c(Cl)cccc1-n1nnnc1-c1cc(-c2cccnc2)cnc1N [I-A-551]
100 to 1000 nM	Nc1ncc(-c2cccnc2)cc1-c1nnnn1-c1cc(Cl)ccc1F [I-A-554]
100 to 1000 nM	Nc1ncc(-c2cccnc2)cc1-c1nnnn1-c1cccc(Cl)c1F [I-A-557]
100 to 1000 nM	COc1c(F)cccc1-n1nnnc1-c1cc(-c2cccnc2)cnc1N [I-A-561]
100 to 1000 nM	COc1c(F)cccc1-n1nnnc1-c1cc(-c2cccc(NC(C)=O)c2)cnc1N [I-A-562]
100 to 1000 nM	CC(=O)Nc1cccc(-c2cnc(N)c(-c3nnnn3-c3cccc(F)c3C)c2)c1 [I-A-564]
100 to 1000 nM	CC(=O)Nc1cccc(-c2cnc(N)c(-c3nnnn3-c3cccc(Cl)c3C)c2)c1 [I-A-565]
100 to 1000 nM	CC(=O)Nc1cccc(-c2cnc(N)c(-c3nnnn3-c3cc(F)ccc3F)c2)c1 [I-A-567]
100 to 1000 nM	CC(=O)Nc1cccc(-c2cnc(N)c(-c3nnnn3-c3cc(Cl)ccc3F)c2)c1 [I-A-568]
100 to 1000 nM	CC(=O)Nc1cccc(-c2cnc(N)c(-c3nnnn3-c3cc(F)ccc3Cl)c2)c1 [I-A-569]
100 to 1000 nM	CC(=O)Nc1cccc(-c2cnc(N)c(-c3nnnn3-c3cc(F)cc(F)c3Cl)c2)c1 [I-A-570]
100 to 1000 nM	CC(=O)Nc1ccc(-c2cnc(N)c(-c3nnnn3-c3cccc(F)c3C)c2)cc1 [I-A-574]
100 to 1000 nM	CC(=O)Nc1ccc(-c2cnc(N)c(-c3nnnn3-c3cccc(Cl)c3C)c2)cc1 [I-A-575]
100 to 1000 nM	CC(=O)Nc1ccc(-c2cnc(N)c(-c3nnnn3-c3cc(Cl)ccc3C)c2)cc1 [I-A-576]
100 to 1000 nM	Cc1c(F)cccc1-n1nnnc1-c1cc(-c2ccc(CN(C)C)cc2)cnc1N [I-A-577]
100 to 1000 nM	Cc1c(Cl)cccc1-n1nnnc1-c1cc(-c2ccc(CN(C)C)cc2)cnc1N [I-A-578]
100 to 1000 nM	Cc1ccc(Cl)cc1-n1nnnc1-c1cc(-c2ccc(CN(C)C)cc2)cnc1N [I-A-579]

Ki	SMILES
100 to 1000 nM	CN(C)Cc1ccc(-c2cnc(N)c(-c3nnnn3-c3cc(F)ccc3F)c2)cc1 [I-A-580]
100 to 1000 nM	CC(=O)Nc1ccc(-c2cnc(N)c(-c3nnnn3-c3cc(F)ccc3F)c2)cc1 [I-A-581]
100 to 1000 nM	CC(=O)Nc1ccc(-c2cnc(N)c(-c3nnnn3-c3cc(Cl)ccc3F)c2)cc1 [I-A-582]
100 to 1000 nM	CC(=O)Nc1ccc(-c2cnc(N)c(-c3nnnn3-c3cc(F)cc(F)c3Cl)c2)cc1 [I-A-583]
≤ 100 nM	CC(=O)Nc1ccc(-c2cnc(N)c(-c3nnnn3-c3cccc(Cl)c3F)c2)cc1 [I-A-584]
100 to 1000 nM	COc1ccc(F)cc1-n1nnnc1-c1cc(-c2ccc(NC(C)=O)cc2)cnc1N [I-A-585]
100 to 1000 nM	CC(=O)Nc1ccc(-c2cnc(N)c(-c3nnnn3-c3cc(Cl)cc(Cl)c3)c2)cc1 [I-A-587]
100 to 1000 nM	COc1c(F)cccc1-n1nnnc1-c1cc(-c2ccc(NC(C)=O)cc2)cnc1N [I-A-588]
≤ 100 nM	COc1c(F)cccc1-n1nnnc1-c1cc(-c2ccc(CN(C)C)cc2)cnc1N [I-A-589]
100 to 1000 nM	CN(C)Cc1ccc(-c2cnc(N)c(-c3nnnn3-c3cc(Cl)cc(Cl)c3)c2)cc1 [I-A-590]
100 to 1000 nM	CN(C)Cc1ccc(-c2cnc(N)c(-c3nnnn3-c3cc(F)cc(F)c3)c2)cc1 [I-A-591]
100 to 1000 nM	CN(C)Cc1ccc(-c2cnc(N)c(-c3nnnn3-c3cc(F)ccc3Cl)c2)cc1 [I-A-592]
100 to 1000 nM	CN(C)Cc1ccc(-c2cnc(N)c(-c3nnnn3-c3cc(Cl)ccc3F)c2)cc1 [I-A-593]
100 to 1000 nM	Nc1ncc(-c2ccc(CN3CCCC3)cc2)cc1-c1nnnn1-c1cc(F)ccc1F [I-A-594]
100 to 1000 nM	Nc1ncc(-c2ccc(CN3CCCC3)cc2)cc1-c1nnnn1-c1cc(Cl)ccc1F [I-A-595]
100 to 1000 nM	Nc1ncc(-c2ccc(CN3CCCC3)cc2)cc1-c1nnnn1-c1cc(F)ccc1Cl [I-A-596]
100 to 1000 nM	Nc1ncc(-c2ccc(CN3CCCC3)cc2)cc1-c1nnnn1-c1cc(Cl)cc(Cl)c1 [I-A-597]
100 to 1000 nM	Cc1c(F)cccc1-n1nnnc1-c1cc(-c2ccc(CN3CCCC3)cc2)cnc1N [I-A-598]
≤ 100 nM	Cc1c(Cl)cccc1-n1nnnc1-c1cc(-c2ccc(CN3CCCC3)cc2)cnc1N [I-A-599]
100 to 1000 nM	Cc1ccc(Cl)cc1-n1nnnc1-c1cc(-c2ccc(CN3CCCC3)cc2)cnc1N [I-A-600]
≤ 100 nM	Nc1ncc(-c2ccc(CN3CCCC3)cc2)cc1-c1nnnn1-c1cc(F)cc(F)c1Cl [I-A-601]
100 to 1000 nM	COc1ccc(F)cc1-n1nnnc1-c1cc(-c2ccc(CN3CCCC3)cc2)cnc1N [I-A-602]

Ki	SMILES
100 to 1000 nM	Nc1ncc(-c2ccc(CN3CCCC3)cc2)cc1-c1nnnn1-c1cc(F)cc(F)c1 [I-A-603]
100 to 1000 nM	COc1c(F)cccc1-n1nnnc1-c1cc(-c2ccc(CN3CCCC3)cc2)cnc1N [I-A-604]
100 to 1000 nM	CN(C)Cc1ccc(-c2cnc(N)c(-c3nnnn3-c3cc(F)cc(F)c3Cl)c2)cc1 [I-A-605]
100 to 1000 nM	COc1ccc(F)cc1-n1nnnc1-c1cc(-c2ccc(CN(C)C)cc2)cnc1N [I-A-606]
100 to 1000 nM	CC(=O)Nc1ccc(-c2cnc(N)c(-c3nnnn3-c3c(F)cccc3F)c2)cc1 [I-A-607]
100 to 1000 nM	Nc1ncc(-c2cccnc2)cc1-c1nnnn1-c1c(F)cccc1F [I-A-608]
100 to 1000 nM	Nc1ncc(-c2cccnc2)cc1-c1nnnn1-c1c(Cl)cccc1Cl [I-A-609]
100 to 1000 nM	CC(=O)Nc1cccc(-c2cnc(N)c(-c3nnnn3-c3c(F)cccc3F)c2)c1 [I-A-610]
100 to 1000 nM	CC(=O)Nc1cccc(-c2cnc(N)c(-c3nnnn3-c3c(Cl)cccc3Cl)c2)c1 [I-A-611]
100 to 1000 nM	CC(=O)Nc1cccc(-c2cnc(N)c(-c3nnnn3-c3c(F)cccc3Cl)c2)c1 [I-A-612]
100 to 1000 nM	CC(=O)Nc1cccc(-c2cnc(N)c(-c3nnnn3-c3c(F)ccc(F)c3Cl)c2)c1 [I-A-613]
100 to 1000 nM	CC(=O)Nc1ccc(-c2cnc(N)c(-c3nnnn3-c3c(F)ccc(F)c3Cl)c2)cc1 [I-A-614]
≤ 100 nM	Nc1ncc(-c2ccc(CN3CCCC3)cc2)cc1-c1nnnn1-c1c(F)cccc1F [I-A-615]
≤ 100 nM	Nc1ncc(-c2ccc(CN3CCCC3)cc2)cc1-c1nnnn1-c1c(F)cccc1Cl [I-A-616]
100 to 1000 nM	Nc1ncc(-c2cccnc2)cc1-c1nnnn1-c1c(F)cccc1Cl [I-A-617]
100 to 1000 nM	Nc1ncc(-c2cccnc2)cc1-c1nnnn1-c1c(F)ccc(F)c1Cl [I-A-618]
≤ 100 nM	CN(C)Cc1ccc(-c2cnc(N)c(-c3nnnn3-c3c(F)cccc3F)c2)cc1 [I-A-619]
≤ 100 nM	Nc1ncc(-c2ccc(CN3CCCC3)cc2)cc1-c1nnnn1-c1c(F)ccc(F)c1Cl [I-A-620]
100 to 1000 nM	CC(=O)Nc1ccc(-c2cnc(N)c(-c3nnnn3-c3c(Cl)cccc3Cl)c2)cc1 [I-A-621]
≤ 100 nM	Nc1ncc(-c2ccc(CN3CCCC3)cc2)cc1-c1nnnn1-c1c(Cl)cccc1Cl [I-A-622]
